Reference: the supplement of paper PMC5579334
± gives the standard deviation of the averaged measurements.

Experiments:
[1] = tested on: HS-PSS; experiment: relative IC50 (inflection point of fitted dose-response curve, CellTiter-Glo viability, 72 h; top asymptote may be below 50% inhibition); higher = less potent
Method in brief: (§1)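 Viability of MPNST cell lines and primary human Schwann cells was read as CellTiter-Glo ATP luminescence after 72 h at 37 °C, 5% CO2, in 384-well plates seeded with 750–1000 cells per well. Each compound had been preprinted at five concentrations in 10-fold steps. Signals were scaled between vehicle and positive-control wells, duplicates averaged where present, and fitted with four-parameter logistic curves. Drug sensitivity score and relative IC50 (censored at the top concentration) come from those fits, and percent inhibition is taken at the top concentration.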

[2] = tested on: ST8814; experiment: as above
Method in brief: as §1

[3] = tested on: HS-Sch-2; experiment: as above
Method in brief: as §1

[4] = tested on: YST-1; experiment: as above
Method in brief: as §1

[5] = tested on: HSC1; experiment: relative IC50 (inflection point of fitted dose-response curve, CellTox-Green cytotoxicity, 72 h; top asymptote may be below 50%); higher = less potent
Method in brief: (§2)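 MPNST cell lines and primary human Schwann cells were grown for 72 h at 37 °C in 384-well plates containing five 10-fold compound dilutions. CellTox-Green, added before seeding at a final 1:1000 dilution, gave fluorescence from DNA released by disrupted cells, and signals were scaled to vehicle and positive-control wells. Curves were fitted with a four-parameter logistic model. Drug sensitivity score and relative IC50 come from these fits, with IC50 censored at the top concentration.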

[6] = tested on: STS26T; experiment: as above
Method in brief: as §2

[7] = tested on: HS-PSS; experiment: as above
Method in brief: as §2

[8] = tested on: ST8814; experiment: as above
Method in brief: as §2

[9] = tested on: HSC2; experiment: as above
Method in brief: as §2

[10] = tested on: HSC1; experiment: relative IC50 (inflection point of fitted dose-response curve, CellTiter-Glo viability, 72 h; top asymptote may be below 50% inhibition); higher = less potent
Method in brief: as §1

[11] = tested on: STS26T; experiment: as above
Method in brief: as §1

[12] = tested on: HSC2; experiment: as above
Method in brief: as §1

[13] = tested on: S462; experiment: as above
Method in brief: as §1

[14] = tested on: STS26T; experiment: drug sensitivity score (DSS, CellTox-Green cytotoxicity, 72 h) (DSS (dimensionless)); higher = more cytotoxic; extreme values may be limits of the assay
Method in brief: as §2

[15] = tested on: HSC2 (primary human Schwann cells); experiment: as above
Method in brief: as §2

[16] = tested on: HS-PSS; experiment: as above
Method in brief: as §2

[17] = tested on: ST8814; experiment: as above
Method in brief: as §2

[18] = tested on: HSC1 (primary human Schwann cells); experiment: as above
Method in brief: as §2

[19] = tested on: S1507-2; experiment: as above
Method in brief: as §2

[20] = tested on: STS26T; experiment: % inhibition of CellTiter-Glo viability at highest tested concentration (72 h), relative to DMSO and benzethonium chloride controls; higher = more inhibition
Method in brief: as §1

[21] = tested on: HSC2 (primary human Schwann cells); experiment: as above
Method in brief: as §1

[22] = tested on: HS-PSS; experiment: as above
Method in brief: as §1

[23] = tested on: ST8814; experiment: as above
Method in brief: as §1

[24] = tested on: HS-Sch-2; experiment: as above
Method in brief: as §1

[25] = tested on: HSC1 (primary human Schwann cells); experiment: as above
Method in brief: as §1

[26] = tested on: S462; experiment: as above
Method in brief: as §1

[27] = tested on: S1507-2; experiment: as above
Method in brief: as §1

[28] = tested on: YST-1; experiment: as above
Method in brief: as §1

[29] = tested on: STS26T; experiment: drug sensitivity score (DSS, CellTiter-Glo viability, 72 h) (DSS (dimensionless)); higher = more sensitive; extreme values may be limits of the assay
Method in brief: as §1

[30] = tested on: HSC2 (primary human Schwann cells); experiment: as above
Method in brief: as §1

[31] = tested on: HS-PSS; experiment: as above
Method in brief: as §1

[32] = tested on: ST8814; experiment: as above
Method in brief: as §1

[33] = tested on: HS-Sch-2; experiment: as above
Method in brief: as §1

[34] = tested on: HSC1 (primary human Schwann cells); experiment: as above
Method in brief: as §1

[35] = tested on: S462; experiment: as above
Method in brief: as §1

[36] = tested on: S1507-2; experiment: as above
Method in brief: as §1

[37] = tested on: YST-1; experiment: as above
Method in brief: as §1

In the case of C[C@]12CC[C@H](O)CC1=CC[C@@H]1[C@@H]2CC[C@]2(C)C(c3cccnc3)=CC[C@@H]12 [Abiraterone], the “relative IC50” value [1] is reported as greater than 5 µM, the “relative IC50” value [2] is reported as greater than 5 µM and the “relative IC50” value [3] is reported as greater than 5 µM. The “relative IC50” value [4] was greater than 5 µM, the “relative IC50” value [5] was greater than 5 µM and the “relative IC50” value [6] was greater than 5 µM. For the same compound, the “relative IC50” value [7] was greater than 5 µM, the “relative IC50” value [8] was greater than 5 µM and the “relative IC50” value [9] was greater than 5 µM.
With Cc1cc(Nc2nc(N[C@@H](C)c3ncc(F)cn3)ncc2Cl)[nH]n1 [AZD1480] the “relative IC50” value [10] was 0.193 µM, the “relative IC50” value [3] was greater than 1 µM and the “relative IC50” value [5] was greater than 1 µM. The “relative IC50” value [7] was greater than 1 µM and the “relative IC50” value [8] was greater than 1 µM.
For COc1cc(CCc2cc(NC(=O)c3ccc(N4CC(C)NC(C)C4)cc3)n[nH]2)cc(OC)c1 (centres undefined) [AZD4547], the “relative IC50” value [11] was greater than 1 µM, the “relative IC50” value [1] was greater than 1 µM and the “relative IC50” value [2] was greater than 1 µM. The “relative IC50” value [3] was 0.253 µM, the “relative IC50” value [4] was greater than 1 µM and the “relative IC50” value [5] was greater than 1 µM. For the same compound, the “relative IC50” value [6] was greater than 1 µM, the “relative IC50” value [7] was greater than 1 µM and the “relative IC50” value [8] was greater than 1 µM. The “relative IC50” value [9] was greater than 1 µM.
With CC1=NN(c2ccc(C(=O)O)cc2)C(=O)C1=Cc1ccc(-c2cc(C)c(C)cc2[N+](=O)[O-])o1 [C646] the “relative IC50” value [10] was greater than 25 µM, the “relative IC50” value [11] was greater than 25 µM and the “relative IC50” value [2] was greater than 25 µM. The “relative IC50” value [3] was greater than 25 µM, the “relative IC50” value [12] was greater than 25 µM and the “relative IC50” value [5] was greater than 25 µM. The “relative IC50” value [6] was greater than 25 µM, the “relative IC50” value [7] was greater than 25 µM and the “relative IC50” value [8] was greater than 25 µM. The “relative IC50” value [9] was 9.18 µM.
For CC1(C)CCC(CN2CCN(c3ccc(C(=O)NS(=O)(=O)c4ccc(NCC5CCOCC5)c([N+](=O)[O-])c4)c(Oc4cnc5[nH]ccc5c4)c3)CC2)=C(c2ccc(Cl)cc2)C1 [ABT-199], the “relative IC50” value [11] was greater than 10 µM, the “relative IC50” value [5] was greater than 10 µM and the “relative IC50” value [6] was greater than 10 µM. For the same compound, the “relative IC50” value [9] was greater than 10 µM.
CNC(=O)c1ccc(N2C(=S)N(c3ccc(C#N)c(C(F)(F)F)c3)C(=O)C2(C)C)cc1F [Enzalutamide] was tested, and the “relative IC50” value [11] was greater than 10 µM, the “relative IC50” value [1] was greater than 10 µM and the “relative IC50” value [3] was greater than 10 µM. For the same compound, the “relative IC50” value [13] was greater than 10 µM, the “relative IC50” value [12] was greater than 10 µM and the “relative IC50” value [4] was greater than 10 µM. The “relative IC50” value [5] was greater than 10 µM, the “relative IC50” value [6] was greater than 10 µM and the “relative IC50” value [7] was greater than 10 µM. For the same compound, the “relative IC50” value [8] was greater than 10 µM and the “relative IC50” value [9] was greater than 10 µM.
With C[C@@H](Oc1cc(-c2cnn(C3CCNCC3)c2)cnc1N)c1c(Cl)ccc(F)c1Cl [Crizotinib] the “relative IC50” value [11] was greater than 1 µM, the “relative IC50” value [1] was 0.367 µM and the “relative IC50” value [2] was greater than 1 µM. For the same compound, the “relative IC50” value [4] was 0.393 µM, the “relative IC50” value [5] was greater than 1 µM and the “relative IC50” value [6] was greater than 1 µM. For the same compound, the “relative IC50” value [7] was greater than 1 µM, the “relative IC50” value [8] was greater than 1 µM and the “relative IC50” value [9] was greater than 1 µM.
For Nc1cccc2c1C(=O)N(C1CCC(=O)NC1=O)C2=O (centres undefined) [Pomalidomide], the “relative IC50” value [10] was greater than 10 µM, the “relative IC50” value [11] was greater than 10 µM and the “relative IC50” value [1] was greater than 10 µM. For the same compound, the “relative IC50” value [2] was greater than 10 µM, the “relative IC50” value [3] was greater than 10 µM and the “relative IC50” value [12] was greater than 10 µM. The “relative IC50” value [4] was greater than 10 µM, the “relative IC50” value [5] was greater than 10 µM and the “relative IC50” value [6] was greater than 10 µM. For the same compound, the “relative IC50” value [7] was greater than 10 µM, the “relative IC50” value [8] was greater than 10 µM and the “relative IC50” value [9] was greater than 10 µM.
Compound O=C(Nc1ccc2[nH]nc(-c3ccncc3)c2c1)[C@@H]1CCN(CC(=O)N2CCN(c3ccc(-c4ncccn4)cc3)CC2)C1 (max concentration tested 10000 nM) has a drug sensitivity score [14] of 1.59, a drug sensitivity score [15] of 0.0074 and a drug sensitivity score [16] of 0. The drug sensitivity score [17] was 10.8, the drug sensitivity score [18] was 0 and the drug sensitivity score [19] was 9.36 ± 3.5. For the same compound, the “% inhibition” value [20] was 40.4%, the “% inhibition” value [21] was 51.2% and the “% inhibition” value [22] was 45.2%. The “% inhibition” value [23] was 91.2%, the “% inhibition” value [24] was 66.4% and the “% inhibition” value [25] was 61.3%. The “% inhibition” value [26] was 97 ± 2.1%, the “% inhibition” value [27] was 77.5 ± 2.5% and the “% inhibition” value [28] was 31.8%. For the same compound, the drug sensitivity score [29] was 4.44, the drug sensitivity score [30] was 10.6 and the drug sensitivity score [31] was 5.75. For the same compound, the drug sensitivity score [32] was 16.7, the drug sensitivity score [33] was 8.78 and the drug sensitivity score [34] was 10.4. For the same compound, the drug sensitivity score [35] was 20.4 ± 0.4, the drug sensitivity score [36] was 10.7 ± 1.2 and the drug sensitivity score [37] was 1.98.
